Where two headings read alike, the source gives them in different places.
How the values were obtained:
[1] = molecular target: 5-HT2B (Homo sapiens, UniProt P41595); assay: NIMH PDSP radioligand competition binding, 5-HT2B
[2] = molecular target: norepinephrine transporter (NET) (Homo sapiens, UniProt P23975); assay: NIMH PDSP radioligand competition binding, NET
[3] = molecular target: δ-opioid receptor (DOR) (Homo sapiens, UniProt P41143); assay: NIMH PDSP radioligand competition binding, DOR
[4] = system: head twitch response (5-HT2A receptor-mediated); assay: Head twitch response; type: in vivo, C57BL/6J mice; settings: for activity in the HTR assay (in words): C57BL/6J mice, IP, within the dose range tested; for ED50: Mus musculus, ip
[5] = molecular target: H2 (Homo sapiens, UniProt P25021); assay: NIMH PDSP radioligand competition binding, H2
[6] = molecular target: 5-HT1E (Homo sapiens, UniProt P28566); assay: NIMH PDSP radioligand competition binding, 5-HT1E
[7] = molecular target: T1, α2C (Homo sapiens, UniProt P18825); assay: NIMH PDSP radioligand competition binding, α2C
T1 sequence (P18825 1-462): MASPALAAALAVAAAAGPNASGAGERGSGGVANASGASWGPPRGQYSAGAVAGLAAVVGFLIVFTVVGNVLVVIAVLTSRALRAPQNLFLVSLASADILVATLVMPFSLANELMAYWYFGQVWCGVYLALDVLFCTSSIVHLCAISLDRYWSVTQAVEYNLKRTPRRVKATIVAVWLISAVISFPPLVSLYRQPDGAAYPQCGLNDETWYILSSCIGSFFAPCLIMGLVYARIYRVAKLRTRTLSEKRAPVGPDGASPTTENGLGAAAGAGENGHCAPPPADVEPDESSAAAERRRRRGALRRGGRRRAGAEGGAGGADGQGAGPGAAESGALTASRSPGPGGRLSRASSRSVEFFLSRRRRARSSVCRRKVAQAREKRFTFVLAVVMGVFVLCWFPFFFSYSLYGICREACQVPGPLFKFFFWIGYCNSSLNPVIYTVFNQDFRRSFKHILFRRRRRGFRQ

[8] = molecular target: peripheral benzodiazepine receptor (PBR) (Rattus norvegicus, UniProt P16257); assay: NIMH PDSP radioligand competition binding, PBR
[9] = molecular target: T2, α1A (Homo sapiens, UniProt P35348); assay: NIMH PDSP radioligand competition binding, α1A
T2 sequence (P35348 1-466): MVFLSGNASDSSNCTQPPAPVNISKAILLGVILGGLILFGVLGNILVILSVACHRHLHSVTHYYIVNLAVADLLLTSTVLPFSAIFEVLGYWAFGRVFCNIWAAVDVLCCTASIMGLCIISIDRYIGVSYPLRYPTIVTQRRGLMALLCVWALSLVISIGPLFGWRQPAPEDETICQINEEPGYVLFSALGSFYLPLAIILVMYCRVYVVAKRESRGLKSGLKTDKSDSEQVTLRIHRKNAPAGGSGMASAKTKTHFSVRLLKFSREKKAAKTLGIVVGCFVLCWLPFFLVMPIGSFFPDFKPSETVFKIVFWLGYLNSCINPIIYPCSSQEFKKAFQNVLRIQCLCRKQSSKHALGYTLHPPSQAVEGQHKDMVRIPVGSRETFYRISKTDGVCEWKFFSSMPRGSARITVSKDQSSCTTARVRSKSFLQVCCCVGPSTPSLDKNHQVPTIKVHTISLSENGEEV

[10] = molecular target: H1 (Homo sapiens, UniProt P35367); assay: NIMH PDSP radioligand competition binding, H1
[11] = molecular target: D2 (Homo sapiens, UniProt P14416); assay: NIMH PDSP radioligand competition binding, D2
[12] = molecular target: serotonin transporter (SERT) (Homo sapiens, UniProt P31645); assay: NIMH PDSP radioligand competition binding, SERT
[13] = molecular target: dopamine transporter (DAT) (Homo sapiens, UniProt Q01959); assay: NIMH PDSP radioligand competition binding, DAT
[14] = molecular target: 5-HT1D (Homo sapiens, UniProt P28221); assay: NIMH PDSP radioligand competition binding, 5-HT1D
[15] = molecular target: T3, α1B (Homo sapiens, UniProt P35368); assay: NIMH PDSP radioligand competition binding, α1B
T3 sequence (P35368 1-520): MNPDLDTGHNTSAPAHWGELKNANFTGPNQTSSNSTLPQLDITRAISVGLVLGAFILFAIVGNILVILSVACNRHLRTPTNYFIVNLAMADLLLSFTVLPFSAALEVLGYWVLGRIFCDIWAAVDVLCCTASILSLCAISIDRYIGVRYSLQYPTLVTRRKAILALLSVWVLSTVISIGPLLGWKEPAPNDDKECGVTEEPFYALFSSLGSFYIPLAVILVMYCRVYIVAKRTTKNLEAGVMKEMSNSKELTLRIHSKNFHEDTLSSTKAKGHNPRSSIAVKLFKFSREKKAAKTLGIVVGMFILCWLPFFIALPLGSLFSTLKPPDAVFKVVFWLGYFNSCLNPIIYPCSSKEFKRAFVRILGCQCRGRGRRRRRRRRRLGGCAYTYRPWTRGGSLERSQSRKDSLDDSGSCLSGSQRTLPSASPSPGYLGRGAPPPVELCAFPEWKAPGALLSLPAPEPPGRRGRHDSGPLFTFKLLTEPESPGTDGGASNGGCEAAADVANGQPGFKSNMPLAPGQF

[16] = molecular target: D5 (Homo sapiens, UniProt P21918); assay: NIMH PDSP radioligand competition binding, D5
[17] = Binding Affinity (Ki, nM), DOR, [3H]DADLE, cloned human receptor
[18] = 0.875 mg/kg IP, duration 30 min
[19] = Binding Affinity (Ki, nM), [3H]tiotidine, cloned human receptor
[20] = Binding Affinity (Ki, nM), PBR, [3H]PK11195, rat kidney, natively expressed
[21] = Binding Affinity (Ki, nM), [3H]SCH23390, cloned human receptor
[22] = read-out: ED50 (95% CI) (mg/kg)
[23] = read-out: ED50 (95% CI) (μmol/kg)

Structure (SMILES) | Ki [1] | Ki [2] | Ki [3, 17] | HTR Counts (mean ± SEM) [4, 18] | HTR Counts (mean ± SEM) ([4]; 1.75 mg/kg IP, duration 30 min) | HTR Counts (mean ± SEM) ([4]; 3.5 mg/kg IP, duration 30 min) | HTR Counts (mean ± SEM) ([4]; 7 mg/kg IP, duration 30 min) | HTR Counts (mean ± SEM) ([4]; 14 mg/kg IP, duration 30 min) | Ki [5, 19] | Ki [6] | Ki [7] | Ki [8, 20] | Ki [9] | Ki [10] | Ki [11] | Ki [12] | Ki [13] | Ki [14] | Ki [15] | Ki [16, 21] | other results
C=CCN(CC=C)CCc1c(-c2ccccc2)[nH]c2ccccc12 [2-Ph-DALT, 2-phenyl-N,N-diallyltryptamine] | 192 nM | 420 nM | 6790 nM | 2.8 ± 0.5 | 3.6 ± 1.3 | 1.4 ± 0.5 | 2.0 ± 0.5 | 1.2 ± 0.5 | 367 nM | > 10000 nM | 159 nM | 1930 nM | 75 nM | 79 nM | 388 nM | > 10000 nM | 746 nM | 204 nM | 904 nM | 2000 nM | Ki ([3]; Ki value, δ-opioid, bound stated): < 10000 nM; activity in the HTR assay (in words) [4]: abolished activity; activity in the HTR assay (in words) ([4]; listed as 2-Phenyl-DALT): did not induce the HTR; Ki ([5]; Ki value, bound stated): < 10000 nM; Ki ([8]; Ki value, peripheral benzodiazepine receptors, bound stated): < 10000 nM; Ki ([16]; Ki value, bound stated): < 10000 nM
C=CCN(CC=C)CCc1c[nH]c2cccc(OC(C)=O)c12 [4-AcO-DALT, 4-acetoxy-N,N-diallyltryptamine] | 63 nM | > 10000 nM | > 10000 nM | 10.4 ± 1.4 | 42.0 ± 9.5 | 39.0 ± 14.1 | 65.0 ± 8.4 | 47.8 ± 10.0 | > 10000 nM | 467 nM | 748 nM | > 10000 nM | > 10000 nM | 353 nM | > 10000 nM | 1090 nM | > 10000 nM | 801 nM | > 10000 nM | > 10000 nM | activity in the HTR assay (in words) [4]: active; ED50 [4, 22]: 1.99 mg/kg; ED50 [4, 23]: 4.8 µmol/kg
C=CCN(CC=C)CCc1c[nH]c2cccc(O)c12 [4-HO-DALT, 4-hydroxy-N,N-diallyltryptamine] | 2590 nM | > 10000 nM | > 10000 nM | – | – | – | – | – | > 10000 nM | 238 nM | > 10000 nM | > 10000 nM | > 10000 nM | > 10000 nM | > 10000 nM | 5210 nM | > 10000 nM | 693 nM | > 10000 nM | > 10000 nM | HTR Counts (mean ± SEM) ([4]; 0.875 mg/kg IP, duration 5 min): 4.0 ± 3.3; HTR Counts (mean ± SEM) ([4]; 1.75 mg/kg IP, duration 5 min): 9.2 ± 3.7; HTR Counts (mean ± SEM) ([4]; 3.5 mg/kg IP, duration 5 min): 28.6 ± 4.1; HTR Counts (mean ± SEM) ([4]; 7 mg/kg IP, duration 5 min): 31.6 ± 4.9; HTR Counts (mean ± SEM) ([4]; 14 mg/kg IP, duration 5 min): 24.6 ± 4.7; activity in the HTR assay (in words) [4]: active; ED50 [4, 22]: 2.6 mg/kg; ED50 [4, 23]: 8.3 µmol/kg
C=CCN(CC=C)CCc1c(C)[nH]c2ccc(F)cc12 [5-F-2-Me-DALT, 5-fluoro-2-methyl-N,N-diallyltryptamine] | 17 nM | > 10000 nM | > 10000 nM | 6.2 ± 1.0 | 6.8 ± 0.9 | 5.8 ± 2.5 | 6.4 ± 1.6 | 7.2 ± 0.8 | > 10000 nM | 1270 nM | 184 nM | > 10000 nM | 1570 nM | 435 nM | 4420 nM | 983 nM | 2210 nM | 1590 nM | > 10000 nM | > 10000 nM | activity in the HTR assay (in words) ([4]; listed as 5-fluoro-2-methyl-DALT): did not induce the HTR; SERT affinity, fold reduction by 2-methylation [12]: ~30 fold
C=CCN(CC=C)CCc1c(C)[nH]c2ccc(OC)cc12 [5-MeO-2-Me-DALT, 5-methoxy-2-methyl-N,N-diallyltryptamine] | 241 nM | > 10000 nM | > 10000 nM | 4.4 ± 0.2 | 7.4 ± 2.2 | 4.2 ± 1.0 | 4.2 ± 0.9 | 5.0 ± 1.4 | > 10000 nM | 1590 nM | 888 nM | > 10000 nM | 1200 nM | 847 nM | > 10000 nM | > 10000 nM | 2410 nM | 900 nM | > 10000 nM | > 10000 nM | activity in the HTR assay (in words) ([4]; listed as 5-methoxy-2-methyl-DALT): did not induce the HTR; displacement at 10,000 nM ([12]; SERT, [3H]citalopram, at 10,000 nM): < 50%
C=CCN(CC=C)CCc1c[nH]c2c(CC)cccc12 [7-Et-DALT, 7-ethyl-N,N-diallyltryptamine] | 65 nM | 1880 nM | > 10000 nM | – | – | – | – | – | > 10000 nM | > 10000 nM | 682 nM | > 10000 nM | > 10000 nM | 913 nM | > 10000 nM | 795 nM | 1730 nM | 2690 nM | > 10000 nM | > 10000 nM | HTR Counts (mean ± SEM) ([4]; 15 mg/kg IP, duration 30 min): 9.8 ± 1.8; activity in the HTR assay (in words) [4]: did not induce the HTR

From publication PMC6230509 (Neuropharmacology, 2018)
